Experimental data from patent publication US20130059375A1, “METHOD FOR PREPARING ES CELLS” (RIKEN, priority 2010, published 2013).

Test system: inner cell mass (ICM) of NOD/SCID mouse
Test: Inventors' earlier attempts to establish ES cells from NOD/SCID inner cell mass by known methods
Format: cell-based
Conditions: factor(s) in medium
Description: The present inventors have considered that this problem can be solved by establishing an ES cell from an NOD/SCID background mouse and introducing human gene thereinto to generate the human gene-introduced NOD/SCID background mouse. […] Furthermore, an FGF receptor inhibitor, an MEK activation inhibitor and a GSK3 inhibitor were added to the medium according to the method that established an ES cell from an NOD mouse (non-patent document 4).

ACTH: known peptide hormone consisting of 39 amino acids (SYSMEHFRWGKPVGKKRRPVKVYPNGAEDESAEAFPLEF; Corticotropin; UniProt P01189 138-176, looked up)
establishment of ES cell: could not establish
